Test results taken from PMC10524218 (Clinical cancer research : an official journal of the …, 2023).

How the values were obtained:
[1] = tested on: γH2AX foci in hair follicles; experiment: γH2AX foci formation in hair follicles as marker of DNA double-strand breaks; type: in vivo, human; conditions: hair follicles from eight patients
[2] = single-agent sacituzumab govitecan ref 35; cited from earlier work
[3] = tested on: SCLC; conditions: monotherapy, SCLC ref 45; cited from earlier work
[4] = Pharmacokinetics in patient blood samples, noncompartmental analysis; conditions: versus patients without; P=0.016; Fig. S3
[5] = human, in vivo

Molecule: sacituzumab govitecan
- γH2AX foci in hair follicles following sacituzumab govitecan [1]: substantial increase in the number and intensity of γH2AX foci
- Grade ≥ 3 neutropenia, fraction of patients [2]: about one-third
- Tumor responses [3]: led to tumor responses in SCLC

Molecule: CCc1c2c(nc3ccc(O)cc13)-c1cc3c(c(=O)n1C2)COC(=O)[C@]3(O)CC [SN-38]
- SN-38 AUC in patients experiencing lymphopenia [4]: higher

Molecule: CCc1c2c(nc3ccc(O[C@@H]4O[C@H](C(=O)O)[C@@H](O)[C@H](O)[C@H]4O)cc13)-c1cc3c(c(=O)n1C2)COC(=O)[C@]3(O)CC [SN-38G]
- SN-38G Cmax in patients experiencing fatigue [5]: higher
